Laboratory results: patent publication US20210087175A1, “Crystalline Form II of Darolutamide” (Sandoz AG, priority 2018, published 2021)

Key:
[1] = Gravimetric moisture sorption (GMS); format: physicochemical; conditions: for phase change during the GMS experiments: 0% to approximately 90% r.h.; for water uptake from 0% to 90% RH: 25±0.1° C.
Method: Moisture sorption isotherms were recorded with an SPSx-1p moisture sorption analyzer (ProUmid, Ulm. The measurement cycle was started at a relative humidity (r.h.) of 25%. Relative humidity was then decreased to 5% r.h. in 5% steps, followed by a further decrease to 3% r.h. and to 0% r.h. Afterwards r.h. was increased from 0% to approximately 90% r.h. in a sorption cycle and decreased to 0% in a desorption cycle in 5% steps. Finally r.h. was increased to 25% r.h. in 5% steps.
The time per step was set to a minimum of 2 hours and a maximum of 6 hours. If an equilibrium condition with a constant mass of 0.01% within 1 hour was reached before the maximum time for all examined samples the sequential humidity step was applied before the maximum time of 6 hours. If no equilibrium was achieved the consecutive humidity step was applied after the maximum time of 6 hours. The temperature was 25±0.1° C.

[2] = Time-dependent solubility of slurries (HPLC) in aqueous hydrochloric acid (0.1 N) and phosphate buffer (pH 7.5) at 37° C.; format: physicochemical
Method: a) Solubility in Aqueous Hydrochloric Acid (0.1 N)
102.39 mg of darolutamide form I were slurried in 20 mL aqueous hydrochloric acid (0.1 N) at 37° C.
99.41 mg of darolutamide form II were slurried in 20 mL aqueous hydrochloric acid (0.1 N) at 37° C.
b) Solubility in Phosphate Buffer (pH 7.5)
105.02 mg of darolutamide form I were slurried in 20 mL […] at 37° C.
103.41 mg of darolutamide form II were slurried in 20 mL […] at 37° C.
Samples were taken after 5 min, 15 min and 60 min. The suspensions were filtered and subjected undiluted to HPLC. The absolute solubility was calculated by creating a linear calibration curve (see below). Results are reported in Table 4 and in FIGS. 10 and 11.
Solutions of different concentrations (Table 5) of darolutamide were prepared in acetonitrile/water (75% v/v) at 37° C. and subjected to HPLC measurement. The resulting areas were illustrated as a function of the concentrations and a linear dependency could be observed (FIG. 12).

[3] = as above; format: physicochemical; conditions: phosphate buffer (pH 7.5)
[4] = Food effect / blood levels after oral administration; format: in vivo

Row | water uptake from 0% to 90% RH ([1]; GMS) | solubility (concentration in solution) ([2]; slurry time 5 min) [mg/mL] | solubility (concentration in solution) ([2]; slurry time 15 min) [mg/mL] | solubility (concentration in solution) ([2]; slurry time 60 min) [mg/mL] | solubility (concentration in solution) ([3]; slurry time 5 min) [mg/mL] | solubility (concentration in solution) ([3]; slurry time 15 min) [mg/mL] | solubility (concentration in solution) ([3]; slurry time 60 min) [mg/mL] | hygroscopicity (comparison) ([1]; GMS, 25° C.) | food effect ([4]; compared to darolutamide Form I) | SMILES | phase change during the GMS experiments ([1]; 25° C.) | blood levels when administered without food ([4]; without food)
1 | +1.7% | 0.043 | 0.041 | 0.038 | 0.043 | 0.04 | 0.042 |  |  | CC(O)c1cc(C(=O)N[C@@H](C)Cn2ccc(-c3ccc(C#N)c(Cl)c3)n2)n[nH]1 (mixture of isomers) [Form I, N-{(2S)-1-[3-(3-chloro-4-cyanophenyl)-1H-pyrazol-1-yl]-propan-2-yl}-5-[(1RS)-1-hydroxyethyl]-1H-pyrazole-3-carboxamide] | Neither form I nor form II underwent any phase change | 
2 | +1.3% | 0.113 | 0.121 | 0.117 | 0.089 | 0.097 | 0.093 | less hygroscopic than form I | significantly lower food effect | CC(O)c1cc(C(=O)N[C@@H](C)Cn2ccc(-c3ccc(C#N)c(Cl)c3)n2)n[nH]1 (mixture of isomers) [Form II, N-{(2S)-1-[3-(3-chloro-4-cyanophenyl)-1H-pyrazol-1-yl]-propan-2-yl}-5-[(1RS)-1-hydroxyethyl]-1H-pyrazole-3-carboxamide] | Neither form I nor form II underwent any phase change | still achieving therapeutically effective blood levels
